# From ChEMBL document CHEMBL1147653, “Identification of type 1 inosine monophosphate dehydrogenase as an antiangiogenic drug target” (J Med Chem, 2006)
# Active and inactive are the calls of the source. No cut-off for these calls is given here.
# Key:
# Jurkat [1] = assay: Antiproliferative activity against Jurkat T cells in presence of 20 uM guanine as measured by [3H]thymidine incorporation; assay type: functional, cell-based; settings: Homo sapiens
# Mus musculus [2] = assay: Antiangiogenic activity in mouse at 60 mg/kg/day, sc; assay type: functional; settings: route subcutaneous
# HUVEC [3] = assay: Cell cycle arrest at G1 phase in HUVEC at 1 uM in presence of 50 uM guanosine; assay type: functional, Homo sapiens
# Mus musculus [4] = species: Mus musculus; assay: Inhibition of tumor-induced angiogenesis in RENCA mouse model; assay type: functional, organism-based
# HUVEC [5] = assay: Cell cycle arrest at G2/M phase in HUVEC at 1 uM; assay type: functional; settings: Homo sapiens
# Jurkat [6] = assay: Antiproliferative activity against Jurkat T cells as measured by [3H]thymidine incorporation; assay type: functional, cell-based; settings: Homo sapiens
# HUVEC [7] = assay: Antiproliferative activity against HUVEC as measured by [3H]thymidine incorporation; assay type: functional, cell-based; settings: Homo sapiens
# HUVEC [8] = assay: Cell cycle arrest at G1 phase in HUVEC at 1 uM; assay type: functional; settings: Homo sapiens
# HUVEC [9] = assay: Cell cycle arrest at S phase in HUVEC at 1 uM in presence of 50 uM guanosine; assay type: functional, Homo sapiens
# HUVEC [10] = assay: Antiproliferative activity against HUVEC in presence of 20 uM guanine as measured by [3H]thymidine incorporation; assay type: functional, cell-based; settings: Homo sapiens
# HUVEC [11] = assay: Cell cycle arrest at G2/M phase in HUVEC at 1 uM in presence of 50 uM guanosine; assay type: functional, Homo sapiens
# HUVEC [12] = assay: Cell cycle arrest at S phase in HUVEC at 1 uM; assay type: functional; settings: Homo sapiens
smiles,measurement,setting,value
COc1c(C)c2c(c(O)c1C/C=C(\C)CCC(=O)O)C(=O)OC2 [MYCOPHENOLIC ACID],Activity,Jurkat [1],inactive
same,inhibition in vivo at 60 mg/kg/day,Mus musculus [2],69%
same,Inhibition,HUVEC [3],71%
same,inhibition,Mus musculus [4],Dose-dependent effect
same,inhibition at 1 µM,HUVEC [5],12.4%
same,IC50,Jurkat [6],128 nM
same,IC50,HUVEC [7],99.2 nM
same,inhibition at 1 µM,HUVEC [8],81%
same,Inhibition,HUVEC [9],11.8%
same,Activity,HUVEC [10],inactive
same,Inhibition,HUVEC [11],17%
same,inhibition at 1 µM,HUVEC [12],6.5%
